Experimental data: US20130230470A1, “PET FOOD COMPOSITION” (DSM IP ASSETS B.V., priority 2003, published 2013)

Columns and labels:
[1] = tested on: domestic shorthair (DSH) breed cats; test: 28-day feeding study in cats: systemic health, body weight, blood counts, serum biochemistry; format: in vivo; settings: treatment diet 2.3 g STAY-C 50/kg cat food, 28 days
Protocol: (§1) 18 domestic shorthair (DSH) breed cats (mean age 3.83±1.85 years, mean body weight 4.2+1.1 kg) were divided by age and gender into two equal groups (n=9) to be fed for 28 days with a • control diet or • treatment diet (2.3 g STAY-C® 50/kg cat food) As the “clean tooth” model was used, all cats received a dental cleaning consisting of ultrasonic scaling and, where necessary, using an abrasor after […], before the beginning of the study. The animals were then treated with the diets for 28 days. The analysis of the different indices were carried out according known methods.

[2] = tested on: domestic shorthair (DSH) breed cats; test: clean tooth model, 28-day feeding study in cats: gingivitis, plaque and calculus indices; format: in vivo; settings: treatment diet 2.3 g STAY-C 50/kg cat food, 28 days
Protocol: as §1

O=C1O[C@H]([C@@H](O)CO)C(O)=C1OP(=O)(O)O.[Na+].[Na+].[Na+] [STAY-C®50, trisodium L-ascorbic acid-2-monophosphate]
changes in systemic health, body weight, blood counts or serum biochemistry [1]: No changes | Calculus indices, reduction compared to control group [2]: about 14% | Plaque indices [2]: reduced significantly | Gingivitis indices ([2]; control group 28% increase): not increased
